The source made the active and inactive calls.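 How the source made its calls: active means EC50 at or below 30 µM together with a response span of at least a set limit; inactive means the rest.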
Molecular target: Cell division control protein 42 homolog (Homo sapiens) (UniProt P60953)
Assay: fluorescent GTP binding blockers of active-mutant Cdc42 – biochemical, pyrazoline analogs, multiplex bead flow cytometry, Ki, SAR follow-up (AID 2020)
Conditions: bead-based flow cytometry, Bodipy-FL-GTP binding; for Ki: measured here: Ki calculated from EC50

Chain of Cell division control protein 42 homolog (Homo sapiens) (P60953 whole entry, looked up, change not shown): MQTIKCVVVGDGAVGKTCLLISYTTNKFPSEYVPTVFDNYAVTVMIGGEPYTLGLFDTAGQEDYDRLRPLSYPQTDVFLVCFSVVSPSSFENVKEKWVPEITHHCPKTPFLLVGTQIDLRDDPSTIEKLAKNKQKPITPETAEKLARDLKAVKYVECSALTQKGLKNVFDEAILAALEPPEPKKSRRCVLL

EC50	Ki [nM]	SMILES
> 30 µM (inactive)	–	COc1ccccc1N1N=C(c2ccccc2)CC1c1ccccc1 (stereo not drawn)
> 30 µM (inactive)	–	O=S(=O)(c1ccc(N2N=C(c3ccc(Br)cc3)CC2c2ccccc2)cc1)C(F)F (stereo not drawn)
> 30 µM (inactive)	–	COc1ccc(C2CC(c3ccc(N(C)C)cc3)=NN2c2ccc(S(N)(=O)=O)cc2)cc1 (stereo not drawn)
> 30 µM (inactive)	–	Clc1cccc(N2N=C(c3ccccc3)CC2c2ccccc2)c1 (stereo not drawn)
inactive	10	CN(C)c1ccc(C2CC(c3ccccc3)=NN2c2ccccc2)cc1 (stereo not drawn)
4.32 µM	670	COc1cccc(C2CC(c3ccccc3)=NN2c2ccc(S(N)(=O)=O)cc2)c1 (stereo not drawn)
> 30 µM (inactive)	–	FC(F)(F)c1cccc(N2N=C(c3ccc(Cl)cc3)CC2c2ccccc2Cl)c1 (stereo not drawn)
> 30 µM (inactive)	–	CN(C)c1ccc(C2CC(c3ccc(F)cc3)=NN2c2ccccc2)cc1 (stereo not drawn)
> 30 µM (inactive)	–	Cc1ccccc1N1N=C(c2ccccc2)CC1c1cccc([N+](=O)[O-])c1 (stereo not drawn)
7.4 µM	1140	NS(=O)(=O)c1ccc(N2N=C(c3ccccc3)CC2c2ccccc2Cl)cc1 (stereo not drawn)
> 30 µM (inactive)	–	COc1ccc(C2=NN(c3ccc(Cl)cc3)C(c3ccccc3F)C2)cc1 (stereo not drawn)
> 30 µM (inactive)	–	COc1ccc(C2CC(c3ccccc3Br)=NN2c2ccc(S(N)(=O)=O)cc2)cc1 (stereo not drawn)
> 30 µM (inactive)	–	Brc1ccc(N2N=C(c3ccccc3)CC2c2ccccc2)cc1 (stereo not drawn)
3.57 µM	550	COc1ccc(C2CC(c3ccccc3F)=NN2c2ccc(S(N)(=O)=O)cc2)cc1 (stereo not drawn)
> 30 µM (inactive)	–	O=[N+]([O-])c1cccc(C2CC(c3ccc(F)cc3)=NN2c2ccccc2)c1 (stereo not drawn)
> 30 µM (inactive)	–	FC(F)(F)c1ccccc1C1CC(c2ccc(Br)cc2)=NN1c1ccccc1 (stereo not drawn)
> 30 µM (inactive)	–	COc1ccc(C2CC(c3ccccc3C(F)(F)F)=NN2c2ccc(S(N)(=O)=O)cc2)cc1 (stereo not drawn)
inactive	4670	CN(C)c1ccc(C2CC(c3ccc(Cl)cc3)=NN2c2ccccc2)cc1 (stereo not drawn)
> 30 µM (inactive)	–	Cc1ccccc1N1N=C(c2ccccc2)CC1c1ccc(N(C)C)cc1 (stereo not drawn)
> 30 µM (inactive)	–	O=[N+]([O-])c1cccc(C2CC(c3ccccc3)=NN2c2ccccc2)c1 (stereo not drawn)
inactive	4860	COc1ccc(C2=NN(c3cccc(F)c3)C(c3ccc(Cl)cc3)C2)cc1 (stereo not drawn)
2.08 µM	320	COc1ccc(C2CC(c3cccc(Cl)c3)=NN2c2ccc(S(N)(=O)=O)cc2)cc1 (stereo not drawn)

EC50	Ki [nM]	SMILES
> 30 µM (inactive)	–	NS(=O)(=O)c1ccc(N2N=C(c3ccc(Br)cc3)CC2c2ccc(F)cc2)cc1 (stereo not drawn)
7.34 µM	1140	COc1ccc(C2CC(c3ccsc3)=NN2c2ccc(S(N)(=O)=O)cc2)cc1 (stereo not drawn)
> 30 µM (inactive)	–	COc1ccc(C2CC(c3ccc(C(F)(F)F)cc3)=NN2c2ccc(S(N)(=O)=O)cc2)cc1 (stereo not drawn)
3.67 µM	570	NS(=O)(=O)c1ccc(N2N=C(c3ccccc3)CC2c2cccc(Br)c2)cc1 (stereo not drawn)
inactive	380	COc1ccc(-c2cc(-c3ccccc3)nn2-c2ccc(S(N)(=O)=O)cc2)cc1
inactive	3500	COc1ccc(C2=NN(c3ccccc3)C(c3ccccc3C(F)(F)F)C2)cc1 (stereo not drawn)
inactive	3770	CC(=O)Oc1ccc(C2=NN(c3ccccc3)C(c3ccccc3)C2)cc1 (stereo not drawn)
inactive	90	COc1ccccc1C1CC(c2ccccc2)=NN1c1ccccc1 (stereo not drawn)
> 30 µM (inactive)	–	CN(C)c1ccc(C2CC(c3ccccc3)=NN2c2ccc([N+](=O)[O-])cc2)cc1 (stereo not drawn)
> 30 µM (inactive)	–	Clc1ccc(N2N=C(c3ccccc3)CC2c2ccccc2)cc1 (stereo not drawn)
5.04 µM	780	Cc1ccc(C2CC(c3ccccc3)=NN2c2ccc(S(N)(=O)=O)cc2)cc1 (stereo not drawn)
> 30 µM (inactive)	–	COc1ccc(C2CC(c3cccc(N(C)C)c3)=NN2c2ccc(S(N)(=O)=O)cc2)cc1 (stereo not drawn)
> 30 µM (inactive)	–	COc1ccc(C2CC(c3ccccc3)=NN2c2ccc(C(=O)O)cc2)cc1 (stereo not drawn)
inactive	320	COc1ccc(C2CC(c3cccc(Br)c3)=NN2c2ccc(S(N)(=O)=O)cc2)cc1 (stereo not drawn)
> 30 µM (inactive)	–	NS(=O)(=O)c1ccc(N2N=C(c3ccccc3)CC2c2ccccc2Br)cc1 (stereo not drawn)
13.6 µM	2100	Cc1ccccc1C1CC(c2ccccc2)=NN1c1ccc(S(N)(=O)=O)cc1 (stereo not drawn)
inactive	4880	COc1ccc(C2CC(c3ccc(F)cc3)=NN2c2cccc(F)c2)cc1OC (stereo not drawn)
> 30 µM (inactive)	–	COc1ccc(C2CC(c3ccc(F)cc3)=NN2c2cc(Cl)ccc2Cl)cc1 (stereo not drawn)
> 30 µM (inactive)	–	Cc1ccc(-c2cc(C(F)(F)F)nn2-c2ccc(S(N)(=O)=O)cc2)cc1
2.88 µM	450	COc1ccc(C2CC(c3ccccc3Cl)=NN2c2ccc(S(N)(=O)=O)cc2)cc1 (stereo not drawn)
inactive	–	CCc1ccc(C2=NN(c3ccc(S(N)(=O)=O)cc3)C(c3ccc(F)cc3)C2)cc1 (stereo not drawn)
> 30 µM (inactive)	–	COc1ccc(C2CC(c3ccc(Br)cc3)=NN2c2ccccc2Cl)cc1 (stereo not drawn)

EC50	Ki [nM]	SMILES
> 30 µM (inactive)	–	COc1ccccc1C1CC(c2ccccc2)=NN1c1ccc(S(N)(=O)=O)cc1 (stereo not drawn)
> 30 µM (inactive)	–	O=[N+]([O-])c1ccc(N2N=C(c3ccccc3)CC2c2ccccc2)cc1 (stereo not drawn)
3.45 µM	530	COc1ccc(C2CC(c3cccc(F)c3)=NN2c2ccc(S(N)(=O)=O)cc2)cc1 (stereo not drawn)
> 30 µM (inactive)	–	COc1ccc(C2CC(C3CCCCC3)=NN2c2ccc(S(N)(=O)=O)cc2)cc1 (stereo not drawn)
> 30 µM (inactive)	–	COc1ccc(C2CC(c3cccc(C(F)(F)F)c3)=NN2c2ccc(S(N)(=O)=O)cc2)cc1 (stereo not drawn)
> 30 µM (inactive)	–	Fc1ccc(C2=NN(c3cccc(Br)c3)C(c3ccccc3)C2)cc1 (stereo not drawn)
> 30 µM (inactive)	–	Cc1onc(-c2ccccc2)c1-c1ccc(S(N)(=O)=O)cc1
> 30 µM (inactive)	–	COc1ccc(C2CC(C(C)(C)C)=NN2c2ccc(S(N)(=O)=O)cc2)cc1 (stereo not drawn)
inactive	440	COc1ccc(C2CC(c3ccc(Br)cc3)=NN2c2ccc(S(N)(=O)=O)cc2)cc1 (stereo not drawn)
3.98 µM	620	COc1ccc(C2CC(c3cccs3)=NN2c2ccc(S(N)(=O)=O)cc2)cc1 (stereo not drawn)
> 30 µM (inactive)	–	CN(C)c1ccc(C2CC(c3ccc(Br)cc3)=NN2c2ccccc2)cc1 (stereo not drawn)
> 30 µM (inactive)	–	COc1ccc(C2CC(c3ccccc3)=NN2c2ccc(C(N)=O)cc2)cc1 (stereo not drawn)
> 30 µM (inactive)	–	O=[N+]([O-])c1ccc(N2N=C(c3ccccc3)CC2c2ccc(O)cc2)cc1 (stereo not drawn)
4.05 µM	630	COc1ccc(C2CC(c3ccc(Cl)cc3)=NN2c2ccc(S(N)(=O)=O)cc2)cc1 (stereo not drawn)
> 30 µM (inactive)	–	COc1ccc(C2CC(c3ccccc3)=NN2c2ccc(Cl)c(C(=O)O)c2)cc1 (stereo not drawn)
> 30 µM (inactive)	–	COc1ccc(C2CC(c3ccncc3)=NN2c2ccc(S(N)(=O)=O)cc2)cc1 (stereo not drawn)
4.05 µM	630	COc1ccc(C2CC(c3cccc(C)c3)=NN2c2ccc(S(N)(=O)=O)cc2)cc1 (stereo not drawn)
inactive	360	COc1ccc(C2CC(c3ccccc3C)=NN2c2ccc(S(N)(=O)=O)cc2)cc1 (stereo not drawn)
> 30 µM (inactive)	–	COc1ccc(C2=NN(c3ccccc3)C(c3ccc(Cl)cc3)C2)cc1 (stereo not drawn)
> 30 µM (inactive)	–	COc1ccc(C2CC(c3ccc(Cl)cc3)=NN2c2ccccc2)cc1OC (stereo not drawn)
> 30 µM (inactive)	–	COc1ccc(C2=NN(c3ccccc3F)C(c3ccc(F)cc3)C2)cc1 (stereo not drawn)
> 30 µM (inactive)	–	Fc1ccccc1C1CC(c2ccc(Br)cc2)=NN1c1ccc(Br)cc1 (stereo not drawn)

EC50	Ki [nM]	SMILES
inactive	390	COc1ccc(C2=NN(c3ccc(S(N)(=O)=O)cc3)C(c3ccc(OC)cc3)C2)cc1 (stereo not drawn)
1.59 µM	250	COc1ccc(C2CC(c3cccc(OC)c3)=NN2c2ccc(S(N)(=O)=O)cc2)cc1 (stereo not drawn)
> 30 µM (inactive)	–	COc1ccc(C2CC(c3ccc(F)cc3)=NN2c2ccccc2)cc1OC (stereo not drawn)
> 30 µM (inactive)	–	COc1ccc(C2CC(c3ccccc3)=NN2c2ccc([N+](=O)[O-])cc2)cc1 (stereo not drawn)
3.62 µM	560	NS(=O)(=O)c1ccc(N2N=C(c3ccccc3)CC2c2cccc(Cl)c2)cc1 (stereo not drawn)
> 30 µM (inactive)	–	COc1ccc(C2=NN(c3ccc(Cl)c(Cl)c3)C(c3ccc(OC)cc3)C2)cc1 (stereo not drawn)
5.3 µM	820	Cc1cccc(C2CC(c3ccccc3)=NN2c2ccc(S(N)(=O)=O)cc2)c1 (stereo not drawn)
> 30 µM (inactive)	–	COc1ccc(C2CC(c3cccnc3)=NN2c2ccc(S(N)(=O)=O)cc2)cc1 (stereo not drawn)
> 30 µM (inactive)	–	O=S(=O)(O)c1ccc(N2N=C(c3ccccc3)CC2c2ccccc2)cc1 (stereo not drawn)
5.47 µM	850	COc1ccc(C2CC(c3ccc(F)cc3)=NN2c2ccc(S(N)(=O)=O)cc2)cc1 (stereo not drawn)
inactive	10	COc1ccc(C2CC(c3ccccc3)=NN2c2cccc(S(N)(=O)=O)c2)cc1 (stereo not drawn)
6.05 µM	940	COc1ccc(C2CC(c3ccccc3)=NN2c2ccc(S(N)(=O)=O)cc2)cc1OC (stereo not drawn)
> 30 µM (inactive)	–	Cc1cccc(N2N=C(c3ccccc3)CC2c2ccccc2)c1 (stereo not drawn)
> 30 µM (inactive)	–	COc1ccc(C2=NN(c3cccc(F)c3)C(c3ccc(OC)cc3)C2)cc1 (stereo not drawn)
> 30 µM (inactive)	–	O=C(O)c1ccc(N2N=C(c3ccccc3)CC2c2ccccc2)cc1 (stereo not drawn)
7.11 µM	1100	NS(=O)(=O)c1ccc(N2N=C(c3ccc(Cl)cc3)CC2c2ccccc2)cc1 (stereo not drawn)
16.8 µM	2600	NS(=O)(=O)c1ccc(N2N=C(c3ccccc3)CC2c2ccccc2)cc1 (stereo not drawn)
3.64 µM	560	NS(=O)(=O)c1ccc(N2N=C(c3ccccc3)CC2c2ccc(Cl)cc2)cc1 (stereo not drawn)
1.7 µM	260	NS(=O)(=O)c1ccc(N2N=C(c3ccccc3)CC2c2ccc(Br)cc2)cc1 (stereo not drawn)
> 30 µM (inactive)	–	O=S(=O)(c1ccc(N2N=C(c3ccccc3)CC2c2ccccc2)cc1)C(F)F (stereo not drawn)
inactive	370	COc1ccc(C2CC(c3ccc(C)cc3)=NN2c2ccc(S(N)(=O)=O)cc2)cc1 (stereo not drawn)
